# From ChEMBL document CHEMBL1134244, “Design and synthesis of a new sialyl Lewis X mimetic: how selective are the selectin receptors?” (Bioorg Med Chem Lett, 2001)
# How the values were obtained:
# E-selectin = molecular target: T1, E-selectin (Homo sapiens, UniProt P16581); assay: Concentration required to inhibit the interaction of Selectin E and HL-60 cells; type: cell-based
# T1 sequence (P16581 whole entry): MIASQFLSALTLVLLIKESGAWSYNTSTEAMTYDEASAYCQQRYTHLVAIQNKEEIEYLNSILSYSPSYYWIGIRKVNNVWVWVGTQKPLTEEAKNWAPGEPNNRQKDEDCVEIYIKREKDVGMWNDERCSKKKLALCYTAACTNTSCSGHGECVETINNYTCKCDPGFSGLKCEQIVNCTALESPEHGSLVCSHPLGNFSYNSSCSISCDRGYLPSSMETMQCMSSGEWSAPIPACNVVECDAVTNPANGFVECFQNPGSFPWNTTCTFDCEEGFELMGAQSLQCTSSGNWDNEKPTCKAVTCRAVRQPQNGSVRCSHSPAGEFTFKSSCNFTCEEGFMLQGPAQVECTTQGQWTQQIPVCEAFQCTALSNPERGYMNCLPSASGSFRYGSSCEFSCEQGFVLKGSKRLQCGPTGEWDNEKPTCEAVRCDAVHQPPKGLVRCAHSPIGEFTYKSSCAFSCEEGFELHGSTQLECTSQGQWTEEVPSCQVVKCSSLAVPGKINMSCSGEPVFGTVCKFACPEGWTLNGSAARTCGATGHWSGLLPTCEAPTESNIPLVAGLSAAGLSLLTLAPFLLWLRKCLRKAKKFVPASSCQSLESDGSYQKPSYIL
# P-selectin = molecular target: T2, P-selectin (Homo sapiens, UniProt P16109); assay: Concentration required to inhibit the interaction of Selectin P and HL-60 cells; type: cell-based
# T2 sequence (P16109 whole entry): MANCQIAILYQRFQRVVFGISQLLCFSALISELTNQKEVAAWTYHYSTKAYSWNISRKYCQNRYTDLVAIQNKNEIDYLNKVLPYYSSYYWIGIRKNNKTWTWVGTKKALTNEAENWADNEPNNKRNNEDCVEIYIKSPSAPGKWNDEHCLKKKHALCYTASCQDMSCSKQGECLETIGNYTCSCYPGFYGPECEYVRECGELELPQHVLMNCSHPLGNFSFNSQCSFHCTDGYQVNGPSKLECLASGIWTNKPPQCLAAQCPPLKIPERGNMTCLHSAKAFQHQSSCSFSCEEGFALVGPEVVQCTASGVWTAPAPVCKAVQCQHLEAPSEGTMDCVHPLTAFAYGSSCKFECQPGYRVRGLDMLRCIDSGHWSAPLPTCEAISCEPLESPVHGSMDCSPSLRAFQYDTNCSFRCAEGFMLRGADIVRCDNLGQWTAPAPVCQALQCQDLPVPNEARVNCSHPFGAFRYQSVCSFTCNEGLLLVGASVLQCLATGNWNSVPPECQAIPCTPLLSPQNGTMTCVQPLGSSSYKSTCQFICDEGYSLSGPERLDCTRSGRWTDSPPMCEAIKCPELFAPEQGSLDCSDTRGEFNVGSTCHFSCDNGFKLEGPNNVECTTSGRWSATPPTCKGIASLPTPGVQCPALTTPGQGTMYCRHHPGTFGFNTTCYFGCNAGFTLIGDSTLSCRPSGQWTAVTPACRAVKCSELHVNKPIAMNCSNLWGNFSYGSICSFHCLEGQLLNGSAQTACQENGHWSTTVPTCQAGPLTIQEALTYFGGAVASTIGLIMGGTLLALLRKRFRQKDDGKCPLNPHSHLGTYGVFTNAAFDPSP
IC50 (E-selectin),IC50 (P-selectin),Structure (SMILES)
5 mM,5.5 mM,CC(=O)N[C@H]1[C@H]([C@H](O)[C@H](O)CO)O[C@@](O[C@H]2[C@@H](O)[C@@H](CO)O[C@@H](O[C@@H]([C@H](O[C@@H]3O[C@@H](C)[C@@H](O)[C@@H](O)[C@@H]3O)[C@H](C=O)NC(C)=O)[C@H](O)CO)[C@@H]2O)(C(=O)O)C[C@@H]1O [SIALYL LEWIS X]
5 mM,4.5 mM,"CC(=O)N[C@H]1[C@H]([C@H](O)[C@H](O)CO)O[C@@](O[C@H]2[C@@H](O)[C@@H](CO)O[C@@H](O[C@@H]([C@H](O[C@@H]3O[C@@H](C)[C@@H](O)[C@@H](O)[C@@H]3O)[C@H](C=O)NC(C)=O)[C@H](O)CO)[C@@H]2O)(C(=O)O)C[C@@H]1O (single isomer, unassigned; enantiomer B) [SIALYL LEWIS X]"
7 mM,5 mM,"CC(=O)N[C@H]1[C@H]([C@H](O)[C@H](O)CO)O[C@@](O[C@H]2[C@@H](O)[C@@H](CO)O[C@@H](O[C@@H]([C@H](O[C@@H]3O[C@@H](C)[C@@H](O)[C@@H](O)[C@@H]3O)[C@H](C=O)NC(C)=O)[C@H](O)CO)[C@@H]2O)(C(=O)O)C[C@@H]1O (single isomer, unassigned; enantiomer A) [SIALYL LEWIS X]"
